Data taken from ChEMBL document CHEMBL3885881, “DrugMatrix”.

Species: Rattus norvegicus
Test: DrugMatrix - Regimen: Daily Repeat
Format: toxicity, organism-based, Sprague-Dawley
Set-up: regimen Daily Repeat, gender Male, age 6-8 weeks
Conditions: in vivo, po, route oral GAVAGE, vehicle 100 % WATER; for ABSOLUTE BASOPHIL / ABSOLUTE EOSINOPHIL / ABSOLUTE LYMPHOCYTE / ABSOLUTE MONOCYTE / ABSOLUTE SEGMENTED NEUTROPHIL / BASOPHIL / EOSINOPHIL / ERYTHROCYTE COUNT / HEMATOCRIT / HEMOGLOBIN / LEUKOCYTE COUNT / LYMPHOCYTE / MEAN CORPUSCULAR HEMOGLOBIN / MEAN CORPUSCULAR HEMOGLOBIN CONCENTRATION / MEAN CORPUSCULAR VOLUME / MONOCYTE / NEUTROPHIL / NUCLEATED RED BLOOD CELLS / PLATELET COUNT: tissue Blood; for ALANINE AMINOTRANSFERASE / ALBUMIN / ALKALINE PHOSPHATASE / ASPARTATE AMINOTRANSFERASE / BLOOD UREA NITROGEN / CARBON DIOXIDE / CHLORIDE / CHOLESTEROL / CREATINE PHOSPHOKINASE / CREATININE / GLUCOSE / LACTATE DEHYDROGENASE / LIPASE / PHOSPHORUS / POTASSIUM / SODIUM / TOTAL BILIRUBIN / TOTAL PROTEIN / URIC ACID: tissue Plasma
[1] = 0 mg/kg, 72 h, dose level Control, time 3 day
[2] = 0 mg/kg, 120 h, dose level Control, time 5 day
[3] = 2200 mg/kg, 72 h, dose level High, time 3 day
[4] = 2200 mg/kg, 120 h, dose level High, time 5 day

## O.O.O.O.O.O.[Cl-].[Cl-].[Sr+2] [STRONTIUM CHLORIDE HEXAHYDRATE]
[1]
  ABSOLUTE BASOPHIL: 0 CELLS/uL
  ABSOLUTE EOSINOPHIL: 151.33 CELLS/uL
  ABSOLUTE LYMPHOCYTE: 10599.5 CELLS/uL
  ABSOLUTE MONOCYTE: 109.5 CELLS/uL
  ABSOLUTE SEGMENTED NEUTROPHIL: 1139.67 CELLS/uL
  BASOPHIL: 0%
  EOSINOPHIL: 0.83%
  ERYTHROCYTE COUNT: 5.54 x10E6/uL
  HEMATOCRIT: 35.35%
  HEMOGLOBIN: 13.22 G/DL
  LEUKOCYTE COUNT: 12 x10E3/uL
  LYMPHOCYTE: 89%
  MEAN CORPUSCULAR HEMOGLOBIN: 23.88 pg
  MEAN CORPUSCULAR HEMOGLOBIN CONCENTRATION: 37.4 G/DL
  MEAN CORPUSCULAR VOLUME: 63.85 fL
  MONOCYTE: 1%
  NEUTROPHIL: 9.17%
  NUCLEATED RED BLOOD CELLS: 0 /100WBC
  PLATELET COUNT: 1333.33 x10E3/uL
  ALANINE AMINOTRANSFERASE: 53.17 u/L
  ALBUMIN: 4.32 G/DL
  ALKALINE PHOSPHATASE: 404.33 u/L
  ASPARTATE AMINOTRANSFERASE: 83.17 u/L
  BLOOD UREA NITROGEN: 15.67 mg/dL
  CARBON DIOXIDE: 27.33 mmol/L
  CHLORIDE: 101.83 MEQ/L
  CHOLESTEROL: 68.67 mg/dL
  CREATINE PHOSPHOKINASE: 276.17 u/L
  CREATININE: 0.18 mg/dL
  GLUCOSE: 163.5 mg/dL
  LACTATE DEHYDROGENASE: 144.67 u/L
  LIPASE: 8.83 u/L
  PHOSPHORUS: 11.72 mg/dL
  POTASSIUM: 5.99 MEQ/L
  SODIUM: 143.57 MEQ/L
  TOTAL BILIRUBIN: 0.2 mg/dL
  TOTAL PROTEIN: 6.1 G/DL
  URIC ACID: 1.38 mg/dL
[2]
  ABSOLUTE BASOPHIL: 0 CELLS/uL
  ABSOLUTE EOSINOPHIL: 248.67 CELLS/uL
  ABSOLUTE LYMPHOCYTE: 12977.83 CELLS/uL
  ABSOLUTE MONOCYTE: 19.67 CELLS/uL
  ABSOLUTE SEGMENTED NEUTROPHIL: 1137.17 CELLS/uL
  BASOPHIL: 0%
  EOSINOPHIL: 1.67%
  ERYTHROCYTE COUNT: 5.82 x10E6/uL
  HEMATOCRIT: 36.35%
  HEMOGLOBIN: 13.58 G/DL
  LEUKOCYTE COUNT: 14.38 x10E3/uL
  LYMPHOCYTE: 90.5%
  MEAN CORPUSCULAR HEMOGLOBIN: 23.32 pg
  MEAN CORPUSCULAR HEMOGLOBIN CONCENTRATION: 37.42 G/DL
  MEAN CORPUSCULAR VOLUME: 62.42 fL
  MONOCYTE: 0.17%
  NEUTROPHIL: 7.67%
  NUCLEATED RED BLOOD CELLS: 0 /100WBC
  PLATELET COUNT: 1337.67 x10E3/uL
  ALANINE AMINOTRANSFERASE: 48.5 u/L
  ALBUMIN: 4.32 G/DL
  ALKALINE PHOSPHATASE: 354.33 u/L
  ASPARTATE AMINOTRANSFERASE: 80 u/L
  BLOOD UREA NITROGEN: 16 mg/dL
  CARBON DIOXIDE: 27.33 mmol/L
  CHLORIDE: 100.33 MEQ/L
  CHOLESTEROL: 68 mg/dL
  CREATINE PHOSPHOKINASE: 325.17 u/L
  CREATININE: 0.23 mg/dL
  GLUCOSE: 172 mg/dL
  LACTATE DEHYDROGENASE: 254.83 u/L
  LIPASE: 8.33 u/L
  PHOSPHORUS: 12.17 mg/dL
  POTASSIUM: 6.28 MEQ/L
  SODIUM: 143.57 MEQ/L
  TOTAL BILIRUBIN: 0.18 mg/dL
  TOTAL PROTEIN: 6.12 G/DL
  URIC ACID: 1.78 mg/dL
[3]
  ABSOLUTE BASOPHIL: 0 CELLS/uL
  ABSOLUTE EOSINOPHIL: 196.33 CELLS/uL
  ABSOLUTE LYMPHOCYTE: 12931 CELLS/uL
  ABSOLUTE MONOCYTE: 96.33 CELLS/uL
  ABSOLUTE SEGMENTED NEUTROPHIL: 1409.67 CELLS/uL
  BASOPHIL: 0%
  EOSINOPHIL: 1.33%
  ERYTHROCYTE COUNT: 5.23 x10E6/uL
  HEMATOCRIT: 33.33%
  HEMOGLOBIN: 12.6 G/DL
  LEUKOCYTE COUNT: 14.63 x10E3/uL
  LYMPHOCYTE: 88.33%
  MEAN CORPUSCULAR HEMOGLOBIN: 24.13 pg
  MEAN CORPUSCULAR HEMOGLOBIN CONCENTRATION: 37.8 G/DL
  MEAN CORPUSCULAR VOLUME: 63.8 fL
  MONOCYTE: 0.67%
  NEUTROPHIL: 9.67%
  NUCLEATED RED BLOOD CELLS: 0 /100WBC
  PLATELET COUNT: 1378.33 x10E3/uL
  ALANINE AMINOTRANSFERASE: 57.67 u/L
  ALBUMIN: 4.13 G/DL
  ALKALINE PHOSPHATASE: 643.67 u/L
  ASPARTATE AMINOTRANSFERASE: 69.33 u/L
  BLOOD UREA NITROGEN: 15.33 mg/dL
  CARBON DIOXIDE: 26.33 mmol/L
  CHLORIDE: 104.67 MEQ/L
  CHOLESTEROL: 80 mg/dL
  CREATINE PHOSPHOKINASE: 192.67 u/L
  CREATININE: 0.19 mg/dL
  GLUCOSE: 177 mg/dL
  LACTATE DEHYDROGENASE: 86.33 u/L
  LIPASE: 8.33 u/L
  PHOSPHORUS: 12.27 mg/dL
  POTASSIUM: 6.12 MEQ/L
  SODIUM: 145.67 MEQ/L
  TOTAL BILIRUBIN: 0.27 mg/dL
  TOTAL PROTEIN: 5.8 G/DL
  URIC ACID: 1.97 mg/dL
[4]
  ABSOLUTE BASOPHIL: 0 CELLS/uL
  ABSOLUTE EOSINOPHIL: 176 CELLS/uL
  ABSOLUTE LYMPHOCYTE: 13256.67 CELLS/uL
  ABSOLUTE MONOCYTE: 0 CELLS/uL
  ABSOLUTE SEGMENTED NEUTROPHIL: 1734 CELLS/uL
  BASOPHIL: 0%
  EOSINOPHIL: 1%
  ERYTHROCYTE COUNT: 5.42 x10E6/uL
  HEMATOCRIT: 34.13%
  HEMOGLOBIN: 13.03 G/DL
  LEUKOCYTE COUNT: 15.17 x10E3/uL
  LYMPHOCYTE: 87.33%
  MEAN CORPUSCULAR HEMOGLOBIN: 24.13 pg
  MEAN CORPUSCULAR HEMOGLOBIN CONCENTRATION: 38.23 G/DL
  MEAN CORPUSCULAR VOLUME: 63.13 fL
  MONOCYTE: 0%
  NEUTROPHIL: 11.67%
  NUCLEATED RED BLOOD CELLS: 0 /100WBC
  PLATELET COUNT: 1262.67 x10E3/uL
  ALANINE AMINOTRANSFERASE: 42.33 u/L
  ALBUMIN: 3.97 G/DL
  ALKALINE PHOSPHATASE: 573.67 u/L
  ASPARTATE AMINOTRANSFERASE: 58.67 u/L
  BLOOD UREA NITROGEN: 16.67 mg/dL
  CARBON DIOXIDE: 29 mmol/L
  CHLORIDE: 99 MEQ/L
  CHOLESTEROL: 78 mg/dL
  CREATINE PHOSPHOKINASE: 220 u/L
  CREATININE: 0.2 mg/dL
  GLUCOSE: 155.33 mg/dL
  LACTATE DEHYDROGENASE: 172.33 u/L
  LIPASE: 8.67 u/L
  PHOSPHORUS: 11.03 mg/dL
  POTASSIUM: 6.01 MEQ/L
  SODIUM: 142.9 MEQ/L
  TOTAL BILIRUBIN: 0.17 mg/dL
  TOTAL PROTEIN: 5.67 G/DL
  URIC ACID: 1.5 mg/dL
